According to patent US6420393B1, “Cyclopentabenzofuran derivatives and their use” (Bayer Aktiengesellschaft, priority 1998, dated 2002):
Where two headings read alike, the source gives them in different places.

Tests used:
[1] = system: NF-κB-mediated TNFα synthesis in human monocytes; assay: cells; assay type: cell-based; details: Monocyte, 100 nM PMA, read-out: IC50 value after PMA stimulus (TNFα synthesis)
[2] = system: NF-κB-mediated TNFα synthesis in human monocytes; assay: cells; assay type: cell-based; details: Monocyte, LPS 125 ng/ml, 18 hours, TNFα ELISA, read-out: IC50 (inhibition of NF-κB-mediated TNFα synthesis)
[3] = system: human tissue factor promoter (luciferase) in RAW-A3 cells (RAW 264.7 transfectant); assay: Inhibition of NF-κB-mediated expression of the human tissue factor gene: promoter-luciferase reporter in RAW-A3 monocyte cells; assay type: cell-based; details: read-out: IC50 (tissue factor promoter-driven luciferase activity)
Experimental: Inhibition of the NF-κB-mediated Gene Expression of the Human Tissue Factor Gene in Monocytes
Therefore, for the further detection of the inhibition of the NFκB-mediated gene expression by the inhibitors according to the invention, the following biological test was carried out:
The promoter fragment of the human tissue factor gene which contains the NF-κB binding sequence was cloned with oligonucleotide primers of the sequence 5′-TCCCTCGAGATCTCCCAGAGGCAAACTGCCAGAT-3′ (5′ primer of position −925) and 5′-TCCTCGAGCCATGGCTACCAGTTGGGCGGCGAGATC-3′ (3′ primer containing the ATG start codon of the coding sequence of the tissue factor gene) by means of the polymerase chain reaction (PCR) and fused by means of an NcoI/XhoI cloning with the luciferase start codon in the plasmid pGL3-basic vector (Promega Corp. 2800 Woods Hollow Road, Madison, Wis. 53711-5399 USA). […]
After a further 6 hours, the culture supernatant is aspirated and the cells are processed for the measurement of the luciferase activity according to the procedure of the “Luciferase Assay System” (Technical Bulletin of Promega, 2800 Woods Hollow Road, Madison, Wis. 53711-5399 USA. Products E4030, E1483, E1501). The cell lyzate is incubated with the luciferase assay substrate and measured in a luminometer to measure the emitted light. […]

[4] = system: adhesion of human neutrophils to TNF-α-stimulated HUVEC cells; assay: ELAM-dependent adhesion of human neutrophils to TNF-α-stimulated HUVEC; assay type: cell-based
Experimental: (§1) The influence of compound I-3-R on the expression of ELAM-1 was checked in two different test batches. In one functional batch, the adhesion of human neutrophils to TNF-α-stimulated HUVEC cells was measured. The expression of ELAM-1 on the surface of the HUVECs was determined using a fluorescence-labeled ELAM-1-specific monoclonal antibody by means of FACS (cell sorting) analysis.
Experimental Procedure: ELAM-dependent Neutrophil Adhesion to Endothial Cells
The neutrophils were isolated from human blood (100 ml). To this end, 3.5 ml of Polyprep was introduced into a centrifuge bucket and carefully coated with 5 ml of blood. After centrifuging at 2100 min^−1 for 30 minutes, the neutrophil band in the center of the centrifuge bucket was aspirated. After 1:2 dilutions in Clonetics endothelial cell basal medium (EBM), the neutrophils were again centrifuged at 1000 min^−1 for 20 minutes and then made up to a cell concentration of 10^6 cells/ml.
The umbilical cord endothelial cells were grown to confluence in EBM+10% FCS in 96 well microtiter plates. At the start of the experiment, the medium was replaced by EBM without FCS and the experimental substances then employed. After 20 minutes, the HUVECs were stimulated using 10 nM TNF-α. […] The fluorescence of the adherent neutrophils was then measured in a fluorescence photometer.

[5] = system: ELAM-1 expression in HUVECs; assay: TNF-induced expression of ELAM-1 on HUVEC surface (FACS, anti-ELAM-1 antibody); assay type: cell-based, human
Experimental: Inhibition of the NF-κB-mediated Gene Expression of the Adhesion Protein ELAM-1 to Human Umbilical Cord Endothelial Cells (HUVEC)
as §1
Experimental Procedure Quantitative Measurement of the TNF-induced Expression of ELAM-1 in HUVECs
Umbilical cord endothelial cells (HUVEC) were cultured as described above and incubated for 4 hours in the presence or absence of test substances in the presence or absence of 10 ng/ml of TNF. […] After centrifuging and washing again, the cells were taken up in 1 ml of PBS plus 1% BSA and measured at 488 nm in a flow cytometer (Becton and Dickinson). The intensity of the fluorescence as a function of bound anti-ELAM-1 antibody per cell is measured by this process. 5000 cells were measured for each value.

[6] = system: interleukin-2 promoter (luciferase) in SS-1 cell line; assay: Inhibition of interleukin-2 synthesis: interleukin-2 promoter-luciferase reporter cell line (SS-1), PMA/ionomycin induced; assay type: cell-based; details: IL-2 promoter reporter cell line, PMA 5 ng/ml + ionomycin, 24 hours; read-out: IC50 (inhibition of induction of luciferase activity to 50%)
Source text: Inhibition of Interleukin-2 Synthesis
For the testing of the inhibitory action of cyclopentabenzene derivatives on interleukin-2 synthesis, a receptor gene cell line was used which contains the interleukin-2 promoter coupled to the luciferase gene. The promoter contains the DNA sequence from −480 to +4. The vector employed is pGL3; the starting cell line in which the total construct has been stably transfected is SS-1. The culture medium for this cell line was RPMI 1640 (Gibco, Rockille). It additionally contained: 100 μg/ml of streptomycin, 100 U/ml of penicillin, 2 mM L-glutamine, 10% heat-inactivated FBS and 800 μg/ml of G418 sulfate.
The reporter gene test cell line was inoculated into 96-well plates to 1×10^6 cells per well in Phenol Red-free RPMI with the additives and incubated at 37° C. in an atmosphere of 5% CO2, 95% air with phorbol 12-myristate 13-acetate (PMA; 5 ng/ml) and ionomycin ([…]; 0.4 μg/ml) for 24 hours. The test substances were added simultaneously with PMA.
For the generation of the luminescence, LucLite™ solution (Packard, Meriden, Conn.) was added to a concentration of 100 μl/well and the luminescence was measured in a luminometer (Luminoskan, Labsystems) immediately after addition.

Row | SMILES | IC50 [1] | IC50 [2] | IC50 ([3]; RAW264.7, RAW-A3 cells, induction with 15% serum, 6 hours) | Inhibition of adhesion of neutrophils to TNF-α-stimulated HUVECs ([4]; 10 nM TNF-α, 4 hours, inhibited to 50%) | Concentration at which maximum inhibition of cell adhesion was determined ([4]; neutrophil adhesion to TNF-α-stimulated HUVECs) | Completeness of inhibition of ELAM-1 expression ([5]; HUVEC, 10 ng/ml TNF, 4 hours, FACS, all concentrations investigated) | Inhibition of expression of ELAM-1 on the cell surface (maximum inhibition) ([5]; TNF-α-stimulated HUVECs, inhibited to 50%) | IC50 [6] | IC50 ([3]; RAW264.7, 6 h)
1 | COc1ccc([C@@]23Oc4cc(OC)cc(OC)c4[C@]2(O)[C@@H](O)C[C@H]3c2ccccc2)cc1 (racemic) [Example I-1, (1α,3α,3aα,8bα)-3,3a-dihydro-6,8-dimethoxy-3a-(4-methoxyphenyl)-3-phenyl-1H-cyclopenta[b]benzofuran-1,8b(2H)-diol] | 100 nM | 500 nM | 20000 nM | – | – | – | – | – | –
2 | COc1ccc([C@@]23Oc4cc(OC)cc(OC)c4[C@]2(O)[C@H](O)C[C@H]3c2ccccc2)cc1 (racemic) [Example I-3-R] | – | 100 nM | – | 50% | 50 nM | completely inhibited at none of the concentrations investigated | 50% | 5 to 10 nM | –
3 | COC(=O)CN[C@@H]1C[C@@H](c2ccccc2)[C@]2(c3ccc(OC)cc3)Oc3cc(OC)cc(OC)c3[C@]12O [Example I-5, methyl (1α,3β,3aβ,8bβ)-N-(3,3a-dihydro-6,8-dimethoxy-3a-(4-methoxyphenyl)-3-phenyl-cyclopenta[b]benzofuran-8b(2H)-ol-1-yl)-2-aminoacetate] | 90 nM | 500 nM | – | – | – | – | – | – | 2000 nM
